{"source": "patent US20060112494A1", "about": "“Method of protecting an animal skin product from metalloproteinase activity” (priority 2004, published 2006)", "key": {"[1]": {"tested_on": "mixed bacteria on fresh hide samples", "parameters": "Growth/Days 2 / Growth/Days 4: key to the marks not given beside the values", "settings": "for Growth/Days 1: day 1; for Growth/Days 2: day 2; for Growth/Days 4: day 4"}, "[2]": {"tested_on": "collagenase", "settings": "for Collagenase Activity/Days 1: day 1; for Collagenase Activity/Days 2: day 2; for Collagenase Activity/Days 7: day 7"}, "[3]": {"tested_on": "Pseudomonas fluorescens", "settings": "for Growth/Days 1: day 1; for Growth/Days 2: day 2; for Growth/Days 7: day 7", "method": "(§1) Nutrient agar amended with Azocoll (a substrate made up of insoluble particles of collagen impregnated with a bright azo dye) was used as the test medium to study collagenase activity. The nutrient agar was prepared and autoclaved and then was cooled to 55° C. Azocol was added to give a final concentration of 0.5%. […] Using a sterile spatula or cork-borer, the middle portion of each plate of about the size of a United States quarter, was scooped out. Fresh nutrient agar-azocoll medium containing no inhibitor was added to replace the scooped out portion of the plate. […] The bacteria were grown overnight on nutrient agar. A suspension of each culture was made in sterile water and used to inoculate the middle portion of each plate. The treated samples were incubated at 30° C. and evaluated after 24 hours, 2 days and 7 days for collagenase activity and also for the growth of the bacteria. The test cultures secreted collagenase into the medium as they grew to degrade the collagen in the azocoll medium, and collagenase activity was determined by visual inspection of the clear zone around the bacteria. All % are by weight percent of the active ingredient."}, "[4]": {"tested_on": "collagenase", "settings": "for Collagenase Activity/Days 1: day 1; for Collagenase Activity/Days 2: day 2; for Collagenase Activity/Days 7: day 7", "remark": "listed apart in the source", "description": "Nutrient agar amended with 0.5% AZOCOLL was used as the test medium to study collagenase activity. The nutrient agar was prepared and autoclaved and then was cooled to 55° C. Azocol was added to give a final concentration of 0.5%. […] Fresh hides were obtained from a tannery and were cut into pieces of approximately 2 cm square. One 2×2 cm hide sample was placed on top of the agar containing the inhibitors. Treated samples were incubated at 30° C. and evaluated after 24 hours, 2 days, 3 or 4 days and 7 days for collagenase activity and also for the growth of the bacteria. The bacteria from the hides secreted collagenase into the medium as they grew to degrade the collagen in the azocoll medium and collagenase activity was determined by visual inspection of the clear zone around the bacteria"}, "[5]": {"tested_on": "Aeromonas salmonicida", "parameters": "key to the marks not given beside the values", "settings": "for Growth/Days 1: day 1; for Growth/Days 2: day 2; for Growth/Days 7: day 7", "method": "as §1"}, "[6]": {"tested_on": "collagenase", "settings": "for Collagenase Activity/Days 1: day 1; for Collagenase Activity/Days 2: day 2; for Collagenase Activity/Days 7: day 7", "remark": "listed apart in the source"}}, "note": "Read-outs that look alike come from different tables or passages of the source.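 For Collagenase Activity/Days 4 in this document: nutrient agar containing 0.5% Azocoll with inhibitor, topped by a fresh hide piece, kept at 30 °C, collagenase from hide bacteria scored visually as clearing zone around growth.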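 For Growth/Days 4 in this document: fresh hide pieces laid on inhibitor-containing nutrient agar supplemented with 0.5% Azocoll, incubated at 30 °C, then scored for growth of bacteria originating from the hide.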"}
{"compound": "O=C(O)CN(CCOCCOCCN(CC(=O)O)CC(=O)O)CC(=O)O", "note": "[Na4EGTA, ethylene glycol-bis(β-aminoethylether)-N,N,N′N′-tetraacetic acid]", "values": [{"measurement": "Growth/Days 1", "setting": "[1]; Conc. 0.025%", "result": "++++"}, {"measurement": "Growth/Days 2", "setting": "[1]; Conc. 0.025%", "result": "++++"}, {"measurement": "Growth/Days 4", "setting": "[1]; Conc. 0.025%", "result": "++++"}, {"measurement": "Growth/Days 1", "setting": "[1]; Conc. 0.05%", "result": "++++"}, {"measurement": "Growth/Days 2", "setting": "[1]; Conc. 0.05%", "result": "++++"}, {"measurement": "Growth/Days 4", "setting": "[1]; Conc. 0.05%", "result": "++++"}, {"measurement": "Growth/Days 1", "setting": "[1]; Conc. 0.075%", "result": "++++"}, {"measurement": "Growth/Days 2", "setting": "[1]; Conc. 0.075%", "result": "++++"}, {"measurement": "Growth/Days 4", "setting": "[1]; Conc. 0.075%", "result": "++++"}, {"measurement": "Growth/Days 1", "setting": "[1]; Conc. 0.1%", "result": "++++"}, {"measurement": "Growth/Days 2", "setting": "[1]; Conc. 0.1%", "result": "++++"}, {"measurement": "Growth/Days 4", "setting": "[1]; Conc. 0.1%", "result": "++++"}, {"measurement": "Growth/Days 1", "setting": "[1]; Conc. 0.2%", "result": "++++"}, {"measurement": "Growth/Days 2", "setting": "[1]; Conc. 0.2%", "result": "++++"}, {"measurement": "Growth/Days 4", "setting": "[1]; Conc. 0.2%", "result": "++++"}, {"measurement": "Growth/Days 1", "setting": "[1]; Conc. 0.3%", "result": "++++"}, {"measurement": "Growth/Days 2", "setting": "[1]; Conc. 0.3%", "result": "++++"}, {"measurement": "Growth/Days 4", "setting": "[1]; Conc. 0.3%", "result": "++++"}, {"measurement": "Growth/Days 1", "setting": "[1]; Conc. 0.4%", "result": "+++"}, {"measurement": "Growth/Days 2", "setting": "[1]; Conc. 0.4%", "result": "++++"}, {"measurement": "Growth/Days 4", "setting": "[1]; Conc. 0.4%", "result": "++++"}, {"measurement": "Growth/Days 1", "setting": "[1]; Conc. 0.5%", "result": "+++"}, {"measurement": "Growth/Days 2", "setting": "[1]; Conc. 0.5%", "result": "++++"}, {"measurement": "Growth/Days 4", "setting": "[1]; Conc. 0.5%", "result": "++++"}, {"measurement": "Collagenase Activity/Days 1", "setting": "[2]; Conc. 0.1%", "result": 0}, {"measurement": "Collagenase Activity/Days 2", "setting": "[2]; Conc. 0.1%", "result": 0}, {"measurement": "Collagenase Activity/Days 1", "setting": "[2]; Conc. 0.25%", "result": 0}, {"measurement": "Collagenase Activity/Days 2", "setting": "[2]; Conc. 0.25%", "result": 0}, {"measurement": "Collagenase Activity/Days 7", "setting": "[2]; Conc. 0.25%", "result": 0}, {"measurement": "Collagenase Activity/Days 1", "setting": "[2]; Conc. 0.5%", "result": 0}, {"measurement": "Collagenase Activity/Days 2", "setting": "[2]; Conc. 0.5%", "result": 0}, {"measurement": "Collagenase Activity/Days 7", "setting": "[2]; Conc. 0.5%", "result": 0}, {"measurement": "performance as collagenase inhibitors (summary in words)", "setting": "[2]; collagenase produced by the bacteria studied, Table 2", "result": "performed very well as collagenase inhibitors"}, {"measurement": "Growth/Days 1", "setting": "[3]; Conc. 0.025%", "result": "++++"}, {"measurement": "Growth/Days 2", "setting": "[3]; Conc. 0.025%", "result": "++++"}, {"measurement": "Growth/Days 7", "setting": "[3]; Conc. 0.025%", "result": "++++"}, {"measurement": "Growth/Days 1", "setting": "[3]; Conc. 0.05%", "result": "++++"}, {"measurement": "Growth/Days 2", "setting": "[3]; Conc. 0.05%", "result": "++++"}, {"measurement": "Growth/Days 7", "setting": "[3]; Conc. 0.05%", "result": "++++"}, {"measurement": "Growth/Days 1", "setting": "[3]; Conc. 0.075%", "result": "++++"}, {"measurement": "Growth/Days 2", "setting": "[3]; Conc. 0.075%", "result": "++++"}, {"measurement": "Growth/Days 7", "setting": "[3]; Conc. 0.075%", "result": "++++"}, {"measurement": "Growth/Days 1", "setting": "[3]; Conc. 0.1%", "result": "++++"}, {"measurement": "Growth/Days 2", "setting": "[3]; Conc. 0.1%", "result": "++++"}, {"measurement": "Growth/Days 7", "setting": "[3]; Conc. 0.1%", "result": "++++"}, {"measurement": "Growth/Days 1", "setting": "[3]; Conc. 0.2%", "result": "++++"}, {"measurement": "Growth/Days 2", "setting": "[3]; Conc. 0.2%", "result": "++++"}, {"measurement": "Growth/Days 7", "setting": "[3]; Conc. 0.2%", "result": "++++"}, {"measurement": "Growth/Days 1", "setting": "[3]; Conc. 0.3%", "result": "++++"}, {"measurement": "Growth/Days 2", "setting": "[3]; Conc. 0.3%", "result": "++++"}, {"measurement": "Growth/Days 7", "setting": "[3]; Conc. 0.3%", "result": "++++"}, {"measurement": "Growth/Days 1", "setting": "[3]; Conc. 0.4%", "result": "++++"}, {"measurement": "Growth/Days 2", "setting": "[3]; Conc. 0.4%", "result": "++++"}, {"measurement": "Growth/Days 7", "setting": "[3]; Conc. 0.4%", "result": "++++"}, {"measurement": "Growth/Days 1", "setting": "[3]; Conc. 0.5%", "result": "++++"}, {"measurement": "Growth/Days 2", "setting": "[3]; Conc. 0.5%", "result": "++++"}, {"measurement": "Growth/Days 7", "setting": "[3]; Conc. 0.5%", "result": "++++"}, {"measurement": "Collagenase Activity/Days 1", "setting": "[4]; Conc. 0.025%", "result": "++++"}, {"measurement": "Collagenase Activity/Days 2", "setting": "[4]; Conc. 0.025%", "result": "++++"}, {"measurement": "Collagenase Activity/Days 4", "setting": "[4]; Conc. 0.025%, day 4", "result": "++++"}, {"measurement": "Collagenase Activity/Days 7", "setting": "[4]; Conc. 0.025%", "result": "++++"}, {"measurement": "Collagenase Activity/Days 4", "setting": "[4]; Conc. 0.05%, day 4", "result": "++++"}, {"measurement": "Collagenase Activity/Days 1", "setting": "[4]; Conc. 0.075%", "result": 0}, {"measurement": "Collagenase Activity/Days 4", "setting": "[4]; Conc. 0.075%, day 4", "result": "++++"}, {"measurement": "Collagenase Activity/Days 1", "setting": "[4]; Conc. 0.1%", "result": 0}, {"measurement": "Collagenase Activity/Days 2", "setting": "[4]; Conc. 0.1%", "result": 0}, {"measurement": "Collagenase Activity/Days 4", "setting": "[4]; Conc. 0.1%, day 4", "result": "+"}, {"measurement": "Collagenase Activity/Days 1", "setting": "[4]; Conc. 0.2%", "result": 0}, {"measurement": "Collagenase Activity/Days 2", "setting": "[4]; Conc. 0.2%", "result": 0}, {"measurement": "Collagenase Activity/Days 4", "setting": "[4]; Conc. 0.2%, day 4", "result": "+"}, {"measurement": "Collagenase Activity/Days 1", "setting": "[4]; Conc. 0.3%", "result": 0}, {"measurement": "Collagenase Activity/Days 2", "setting": "[4]; Conc. 0.3%", "result": 0}, {"measurement": "Collagenase Activity/Days 4", "setting": "[4]; Conc. 0.3%, day 4", "result": "+"}, {"measurement": "Collagenase Activity/Days 1", "setting": "[4]; Conc. 0.4%", "result": 0}, {"measurement": "Collagenase Activity/Days 2", "setting": "[4]; Conc. 0.4%", "result": 0}, {"measurement": "Collagenase Activity/Days 4", "setting": "[4]; Conc. 0.4%, day 4", "result": 0}, {"measurement": "Collagenase Activity/Days 4", "setting": "[4]; Conc. 0.5%, column day 4, footnote **: data collected on Day 3", "result": "0**"}, {"measurement": "Collagenase Activity/Days 1", "setting": "[4]; Conc. 0.5%", "result": 0}, {"measurement": "Collagenase Activity/Days 2", "setting": "[4]; Conc. 0.5%", "result": 0}, {"measurement": "Collagenase Activity/Days 7", "setting": "[4]; Conc. 0.5%", "result": 0}, {"measurement": "performance as collagenase inhibitors (summary in words)", "setting": "[4]; collagenase produced by the mixed culture of bacteria from the hides", "result": "performed very well as collagenase inhibitors"}, {"measurement": "Growth/Days 1", "setting": "[5]; Conc. 0.1%", "result": "++++"}, {"measurement": "Growth/Days 2", "setting": "[5]; Conc. 0.1%", "result": "++++"}, {"measurement": "Growth/Days 7", "setting": "[5]; Conc. 0.1%", "result": "++++"}, {"measurement": "Growth/Days 1", "setting": "[5]; Conc. 0.25%", "result": "++++"}, {"measurement": "Growth/Days 2", "setting": "[5]; Conc. 0.25%", "result": "++++"}, {"measurement": "Growth/Days 7", "setting": "[5]; Conc. 0.25%", "result": "++++"}, {"measurement": "Growth/Days 1", "setting": "[5]; Conc. 0.5%", "result": "++++"}, {"measurement": "Growth/Days 2", "setting": "[5]; Conc. 0.5%", "result": "++++"}, {"measurement": "Growth/Days 7", "setting": "[5]; Conc. 0.5%", "result": "++++"}, {"measurement": "Collagenase Activity/Days 1", "setting": "[6]; Conc. 0.025%", "result": "++++"}, {"measurement": "Collagenase Activity/Days 2", "setting": "[6]; Conc. 0.025%", "result": "++++"}, {"measurement": "Collagenase Activity/Days 7", "setting": "[6]; Conc. 0.025%", "result": "++++"}, {"measurement": "Collagenase Activity/Days 1", "setting": "[6]; Conc. 0.075%", "result": 0}, {"measurement": "Collagenase Activity/Days 1", "setting": "[6]; Conc. 0.1%", "result": 0}, {"measurement": "Collagenase Activity/Days 2", "setting": "[6]; Conc. 0.1%", "result": 0}, {"measurement": "Collagenase Activity/Days 1", "setting": "[6]; Conc. 0.2%", "result": 0}, {"measurement": "Collagenase Activity/Days 2", "setting": "[6]; Conc. 0.2%", "result": 0}, {"measurement": "Collagenase Activity/Days 1", "setting": "[6]; Conc. 0.3%", "result": 0}, {"measurement": "Collagenase Activity/Days 2", "setting": "[6]; Conc. 0.3%", "result": 0}, {"measurement": "Collagenase Activity/Days 1", "setting": "[6]; Conc. 0.4%", "result": 0}, {"measurement": "Collagenase Activity/Days 2", "setting": "[6]; Conc. 0.4%", "result": 0}, {"measurement": "Collagenase Activity/Days 1", "setting": "[6]; Conc. 0.5%", "result": 0}, {"measurement": "Collagenase Activity/Days 2", "setting": "[6]; Conc. 0.5%", "result": 0}, {"measurement": "Collagenase Activity/Days 7", "setting": "[6]; Conc. 0.5%", "result": 0}, {"measurement": "performance as collagenase inhibitors (summary in words)", "setting": "[6]; collagenase produced by the bacteria studied, Table 1", "result": "performed very well as collagenase inhibitors"}]}
